Key:
NCI-H3122 = assay: Antiproliferative activity against human NCI-H3122 cells assessed as reduction in cell viability incubated for 48 hrs by MTT assay; assay type: functional, cell-based; conditions: NCI-H3122, 48 h
[1] = Inhibition of TrxR (unknown origin); set-up: species or system Homo sapiens
[2] = molecular target: Hepatocyte growth factor receptor (Homo sapiens, UniProt P08581)
Description: Inhibition of c-MET (unknown origin)

HCCLM3 = assay: Cytotoxicity against human HCCLM3 cells assessed as cell growth inhibition incubated for 48 hrs by MTT assay; assay type: functional, cell-based; conditions: HCCLM3, 48 h
HCC827 = assay: Antiproliferative activity against human HCC827 cells; assay type: functional, cell-based
[3] = molecular target: ALK tyrosine kinase receptor (Homo sapiens, UniProt Q9UM73); assay: Inhibition of ALK (unknown origin)
Chain of ALK tyrosine kinase receptor (Q9UM73 whole entry): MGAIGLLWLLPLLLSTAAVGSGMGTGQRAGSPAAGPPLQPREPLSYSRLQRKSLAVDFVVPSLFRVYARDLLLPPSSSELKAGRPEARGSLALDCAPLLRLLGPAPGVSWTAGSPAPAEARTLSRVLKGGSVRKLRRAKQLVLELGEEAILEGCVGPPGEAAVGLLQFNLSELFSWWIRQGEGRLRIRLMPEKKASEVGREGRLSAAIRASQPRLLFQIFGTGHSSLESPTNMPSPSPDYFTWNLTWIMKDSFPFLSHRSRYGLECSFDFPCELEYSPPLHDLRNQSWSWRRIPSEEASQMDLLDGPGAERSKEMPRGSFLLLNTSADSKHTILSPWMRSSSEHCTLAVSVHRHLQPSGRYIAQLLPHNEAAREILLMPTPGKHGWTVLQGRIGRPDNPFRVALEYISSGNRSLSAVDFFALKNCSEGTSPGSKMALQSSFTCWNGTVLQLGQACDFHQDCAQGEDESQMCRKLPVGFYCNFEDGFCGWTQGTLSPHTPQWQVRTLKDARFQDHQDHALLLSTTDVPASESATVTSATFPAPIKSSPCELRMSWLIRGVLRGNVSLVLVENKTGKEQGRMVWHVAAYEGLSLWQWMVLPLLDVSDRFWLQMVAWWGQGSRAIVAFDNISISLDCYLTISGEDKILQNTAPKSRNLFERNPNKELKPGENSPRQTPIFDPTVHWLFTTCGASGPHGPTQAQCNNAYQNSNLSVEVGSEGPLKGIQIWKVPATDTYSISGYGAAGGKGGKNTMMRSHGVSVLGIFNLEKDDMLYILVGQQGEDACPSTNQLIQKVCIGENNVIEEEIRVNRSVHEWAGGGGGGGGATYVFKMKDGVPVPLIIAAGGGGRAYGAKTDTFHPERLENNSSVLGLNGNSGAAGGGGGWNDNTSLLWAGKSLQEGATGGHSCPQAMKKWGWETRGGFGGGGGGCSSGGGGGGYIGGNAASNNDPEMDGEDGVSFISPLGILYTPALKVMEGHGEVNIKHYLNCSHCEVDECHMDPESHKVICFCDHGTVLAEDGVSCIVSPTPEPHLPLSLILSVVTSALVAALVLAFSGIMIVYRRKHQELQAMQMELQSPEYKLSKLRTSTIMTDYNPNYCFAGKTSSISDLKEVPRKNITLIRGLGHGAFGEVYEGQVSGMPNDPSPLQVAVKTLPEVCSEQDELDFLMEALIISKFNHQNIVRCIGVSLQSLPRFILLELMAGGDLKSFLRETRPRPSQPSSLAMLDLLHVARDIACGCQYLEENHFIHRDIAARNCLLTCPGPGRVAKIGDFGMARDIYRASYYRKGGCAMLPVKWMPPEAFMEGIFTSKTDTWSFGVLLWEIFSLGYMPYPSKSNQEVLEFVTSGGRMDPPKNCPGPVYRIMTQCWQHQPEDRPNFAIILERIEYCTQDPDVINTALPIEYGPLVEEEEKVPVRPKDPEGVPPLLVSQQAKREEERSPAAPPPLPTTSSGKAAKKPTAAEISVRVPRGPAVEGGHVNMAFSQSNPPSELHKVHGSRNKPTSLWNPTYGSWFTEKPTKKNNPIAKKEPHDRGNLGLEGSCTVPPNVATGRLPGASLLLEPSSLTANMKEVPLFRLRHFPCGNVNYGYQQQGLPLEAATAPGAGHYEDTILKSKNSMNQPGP

A-431 = assay: Antiproliferative activity against human A-431 cells assessed as reduction in cell viability incubated for 24 hrs by MTT assay; assay type: functional, cell-based; conditions: A-431, 24 h
NCI-H1975 = assay: Antiproliferative activity against human NCI-H1975 cells assessed as reduction in cell viability incubated for 48 hrs by MTT assay; assay type: functional, cell-based; conditions: NCI-H1975, 48 h
A549 [4] = assay: Antiproliferative activity against human A549 cells assessed as reduction in cell viability incubated for 72 hrs by MTT assay; assay type: functional, cell-based; conditions: A549, 72 h
PC-9 = assay: Antiproliferative activity against human PC-9 cells assessed as reduction in cell growth incubated for 72 hrs by MTT assay; assay type: functional, cell-based; conditions: PC-9, 72 h
COLO 205 = assay: Antiproliferative activity against human COLO 205 cells assessed as reduction in cell viability incubated for 24 hrs by MTT assay; assay type: functional, cell-based; conditions: COLO 205, 24 h
[5] = molecular target: Prostaglandin G/H synthase 2 (Homo sapiens, UniProt P35354); assay: Inhibition of COX-2 (unknown origin)
Chain of Prostaglandin G/H synthase 2 (P35354 whole entry): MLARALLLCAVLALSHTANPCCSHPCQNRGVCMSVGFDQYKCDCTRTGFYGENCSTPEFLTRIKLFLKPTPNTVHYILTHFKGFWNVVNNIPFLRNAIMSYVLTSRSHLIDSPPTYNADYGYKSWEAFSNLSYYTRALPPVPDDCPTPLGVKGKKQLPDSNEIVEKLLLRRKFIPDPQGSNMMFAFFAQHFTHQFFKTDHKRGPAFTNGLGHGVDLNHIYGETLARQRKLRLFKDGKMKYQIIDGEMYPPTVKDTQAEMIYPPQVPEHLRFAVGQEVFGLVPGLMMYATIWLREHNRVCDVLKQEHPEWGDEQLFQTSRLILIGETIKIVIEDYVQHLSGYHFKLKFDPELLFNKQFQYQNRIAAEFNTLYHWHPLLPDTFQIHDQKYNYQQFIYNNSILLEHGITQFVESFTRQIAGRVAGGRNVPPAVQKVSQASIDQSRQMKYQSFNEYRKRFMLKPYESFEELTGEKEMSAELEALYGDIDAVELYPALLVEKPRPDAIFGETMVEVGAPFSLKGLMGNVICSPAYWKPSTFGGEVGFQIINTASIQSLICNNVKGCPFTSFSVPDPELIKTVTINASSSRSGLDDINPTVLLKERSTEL

HT-29 = assay: Antiproliferative activity against human HT-29 cells assessed as reduction in cell viability incubated for 24 hrs by MTT assay; assay type: functional, cell-based; conditions: HT-29, 24 h
A549 [6] = assay: Antiproliferative activity against human A549 cells assessed as reduction in cell viability incubated for 24 hrs by MTT assay; assay type: functional, cell-based; conditions: A549, 24 h
MDA-MB-231 = assay: Antiproliferative activity against human MDA-MB-231 cells assessed as reduction in cell viability incubated for 24 hrs by MTT assay; assay type: functional, cell-based; conditions: MDA-MB-231, 24 h
MCF7 = assay: Antiproliferative activity against human MCF7 cells assessed as reduction in cell viability incubated for 24 hrs by MTT assay; assay type: functional, cell-based; conditions: MCF7, 24 h
MKN-45 = assay: Antiproliferative activity against human MKN-45 cells assessed as cell growth inhibition incubated for 48 hrs by MTT assay; assay type: functional, cell-based; conditions: MKN-45, 48 h
MHCC97H = assay: Antiproliferative activity against human MHCC97H cells assessed as cell growth inhibition incubated for 48 hrs by MTT assay; assay type: functional, cell-based
[7] = molecular target: T1, Tyrosine-protein kinase receptor UFO (Homo sapiens, UniProt P30530); assay: Inhibition of AXL (unknown origin)
T1 sequence (P30530 whole entry): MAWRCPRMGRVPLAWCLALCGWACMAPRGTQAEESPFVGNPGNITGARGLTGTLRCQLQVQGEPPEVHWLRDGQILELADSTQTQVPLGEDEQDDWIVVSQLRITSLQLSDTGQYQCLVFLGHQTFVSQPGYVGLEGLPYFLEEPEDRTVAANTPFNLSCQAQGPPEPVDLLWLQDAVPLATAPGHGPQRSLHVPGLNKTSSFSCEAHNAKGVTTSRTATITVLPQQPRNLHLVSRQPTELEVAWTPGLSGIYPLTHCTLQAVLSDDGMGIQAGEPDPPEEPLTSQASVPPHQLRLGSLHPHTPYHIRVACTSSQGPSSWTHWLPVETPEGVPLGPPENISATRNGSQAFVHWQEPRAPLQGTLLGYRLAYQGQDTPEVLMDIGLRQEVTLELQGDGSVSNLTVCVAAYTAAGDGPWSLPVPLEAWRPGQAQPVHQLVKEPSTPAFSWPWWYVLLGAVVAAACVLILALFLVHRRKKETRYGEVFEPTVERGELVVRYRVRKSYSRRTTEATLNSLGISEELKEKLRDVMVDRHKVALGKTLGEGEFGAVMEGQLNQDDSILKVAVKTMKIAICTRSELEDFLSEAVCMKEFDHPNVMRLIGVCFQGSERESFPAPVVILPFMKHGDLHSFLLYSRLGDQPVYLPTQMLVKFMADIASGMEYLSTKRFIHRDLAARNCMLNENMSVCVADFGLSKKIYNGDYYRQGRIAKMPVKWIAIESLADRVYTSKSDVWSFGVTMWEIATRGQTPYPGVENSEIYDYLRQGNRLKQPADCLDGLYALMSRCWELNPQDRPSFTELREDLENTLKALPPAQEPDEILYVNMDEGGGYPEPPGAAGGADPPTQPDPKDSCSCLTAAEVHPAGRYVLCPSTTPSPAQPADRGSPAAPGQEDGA

Chain of Hepatocyte growth factor receptor (P08581 whole entry): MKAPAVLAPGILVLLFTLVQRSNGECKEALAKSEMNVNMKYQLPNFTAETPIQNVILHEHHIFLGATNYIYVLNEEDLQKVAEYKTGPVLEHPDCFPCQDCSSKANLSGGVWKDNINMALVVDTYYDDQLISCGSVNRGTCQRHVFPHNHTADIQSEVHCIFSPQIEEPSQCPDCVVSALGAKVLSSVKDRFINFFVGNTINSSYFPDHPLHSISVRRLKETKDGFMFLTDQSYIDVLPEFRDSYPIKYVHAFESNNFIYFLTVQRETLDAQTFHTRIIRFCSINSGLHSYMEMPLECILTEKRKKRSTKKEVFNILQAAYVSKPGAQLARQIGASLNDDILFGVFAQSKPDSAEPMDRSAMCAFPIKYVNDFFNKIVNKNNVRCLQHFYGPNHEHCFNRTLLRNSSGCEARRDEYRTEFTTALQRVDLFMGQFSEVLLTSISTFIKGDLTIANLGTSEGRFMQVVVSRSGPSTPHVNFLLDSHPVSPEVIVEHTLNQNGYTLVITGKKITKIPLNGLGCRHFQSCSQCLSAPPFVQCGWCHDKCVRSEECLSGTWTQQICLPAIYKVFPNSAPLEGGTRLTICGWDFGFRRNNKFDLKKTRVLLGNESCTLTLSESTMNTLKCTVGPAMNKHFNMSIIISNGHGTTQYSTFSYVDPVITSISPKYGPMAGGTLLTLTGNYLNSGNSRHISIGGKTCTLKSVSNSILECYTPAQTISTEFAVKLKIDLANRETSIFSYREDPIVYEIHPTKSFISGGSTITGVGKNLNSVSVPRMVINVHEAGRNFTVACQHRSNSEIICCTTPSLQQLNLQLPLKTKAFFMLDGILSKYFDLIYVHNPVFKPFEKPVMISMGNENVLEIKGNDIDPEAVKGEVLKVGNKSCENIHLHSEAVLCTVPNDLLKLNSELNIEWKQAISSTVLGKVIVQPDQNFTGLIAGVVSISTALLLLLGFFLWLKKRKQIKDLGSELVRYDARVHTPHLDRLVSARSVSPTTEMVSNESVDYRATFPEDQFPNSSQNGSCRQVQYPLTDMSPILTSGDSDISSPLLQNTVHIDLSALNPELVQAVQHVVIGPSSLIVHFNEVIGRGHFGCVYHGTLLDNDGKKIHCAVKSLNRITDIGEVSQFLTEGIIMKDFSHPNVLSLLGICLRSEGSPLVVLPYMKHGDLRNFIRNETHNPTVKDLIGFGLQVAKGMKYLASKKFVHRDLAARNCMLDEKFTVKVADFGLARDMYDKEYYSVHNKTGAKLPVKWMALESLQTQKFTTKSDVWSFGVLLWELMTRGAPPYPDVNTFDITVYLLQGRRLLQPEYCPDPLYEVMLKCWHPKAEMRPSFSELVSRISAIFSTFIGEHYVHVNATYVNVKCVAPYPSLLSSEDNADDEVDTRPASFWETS

Q: With `C[C@@H](Oc1cc(C(=O)Nc2ccc(C(=O)N3CCN(C)CC3)cc2)nnc1N)c1c(Cl)ccc(F)c1Cl` as the molecule, how does the IC50 (NCI-H3122) read?
A: 77 nM

Q: With `O=C(Nc1cccc(-c2nc(-c3ccc(NC(=O)c4cccnc4)cc3Cl)no2)c1)Nc1ccc(NC(=O)C2CC2)c(C(F)(F)F)c1` as the molecule, how does the IC50 [1] read?
A: 500 nM

Q: Which IC50 [2] does the source give for `Fc1ccc(Cl)c(Sc2n[nH]c3ncc(-c4cnn(C5CCNCC5)c4)cc23)c1Cl` here?
A: 14.6 nM

Q: For `CN(C)CCC[Se]c1cnc(-c2cccc(Cn3nc(-c4cccc(C#N)c4)ccc3=O)c2)nc1`, which IC50 (HCCLM3) is on record?
A: 13 nM

Q: With `COCCN1CCC(C#Cc2c(Oc3ccc(NC(=O)c4ccnn(-c5ccc(F)cc5)c4=O)cc3F)ccnc2N)CC1` as the molecule, how does the IC50 (HCC827) read?
A: < 100 nM

Q: What does the source list for `c1coc(COCC2Cc3cn4ncnc(-c5cnn(C6CCNCC6)c5)c4c3C2)c1` (stereo not drawn)?
A: IC50 [3]: 0.33 nM; IC50 (A-431): 699 nM; IC50 (NCI-H1975): 1.3 nM

Q: With `Clc1ncccc1COCC1Cc2cn3ncnc(-c4cnn(C5CCNCC5)c4)c3c2C1` (stereo not drawn) as the molecule, how does the IC50 [3] read?
A: 1.88 nM

Q: And the IC50 (A-431)?
A: > 1000 nM

Q: What about the IC50 (NCI-H1975) of the same molecule?
A: 39.2 nM

Q: What does the source list for `CNC(=O)c1ccccc1Nc1nc(Nc2ccc3c(c2)[C@@H](C)CNCC3)ncc1Cl`?
A: IC50 [3]: 7.9 nM; IC50 [2]: 6.4 nM

Q: For `C=CC(=O)Nc1cc2c(Oc3ccc(NC(=O)c4c(C)n(C)n(-c5ccccc5)c4=O)cc3F)ncnc2cc1OC`, which IC50 (A549 [4]) is on record?
A: 1060 nM

Q: What about the IC50 (PC-9) of the same molecule?
A: 1050 nM

Q: For `O=C(/C=C/c1ccc(F)cc1)c1cccc(NC(=O)c2ccc(Cl)cc2)c1`, which IC50 (COLO 205) is on record?
A: < 100 nM

Q: And the IC50 [5]?
A: 2430 nM

Q: And the IC50 (HT-29)?
A: 13600 nM

Q: And the IC50 [2]?
A: 7900 nM

Q: And the IC50 (A549 [6])?
A: 43800 nM

Q: What about the IC50 (MDA-MB-231) of the same molecule?
A: 43000 nM

Q: And the IC50 (MCF7)?
A: 7070 nM

Q: What does the source list for `c1cncc(COCC2Cc3cn4ncnc(-c5cnn(C6CCNCC6)c5)c4c3C2)c1` (stereo not drawn)?
A: IC50 [3]: 1.59 nM; IC50 (A-431): > 1000 nM; IC50 (NCI-H1975): 45.2 nM

Q: With `CC(C)N1CCC(CC#Cc2c(Oc3ccc(NC(=O)c4cn(C(C)C)c(=O)n(-c5ccc(F)cc5)c4=O)cc3F)ccnc2N)CC1` as the molecule, how does the IC50 (HCC827) read?
A: < 100 nM

Q: Which IC50 [3] does the source give for `C[C@@H](Oc1cc(C(=O)Nc2ccc(=O)n(C)c2)nnc1N)c1c(Cl)ccc(F)c1Cl` here?
A: 60 nM

Q: And the IC50 [2]?
A: 40 nM

Q: Which IC50 (HCC827) does the source give for `CC(C)n1cc(C(=O)Nc2ccc(Oc3ccnc(N)c3C#CC(=O)N3CCOCC3)c(F)c2)c(=O)n(-c2ccc(F)cc2)c1=O` here?
A: < 100 nM

Q: With `COCCN1CCC(C#Cc2c(Oc3ccc(NC(=O)c4cn(C(C)C)c(=O)n(-c5ccc(F)cc5)c4=O)cc3F)ccnc2N)CC1` as the molecule, how does the IC50 (HCC827) read?
A: < 100 nM

Q: Which IC50 (COLO 205) does the source give for `Cc1ccc(C(=O)Nc2cccc(C(=O)/C=C/c3ccc(F)cc3)c2)cc1` here?
A: < 100 nM

Q: And the IC50 [5]?
A: 1620 nM

Q: And the IC50 (HT-29)?
A: 10400 nM

Q: And the IC50 [2]?
A: 6610 nM

Q: And the IC50 (A549 [6])?
A: 37000 nM

Q: What about the IC50 (MDA-MB-231) of the same molecule?
A: 7930 nM

Q: What about the IC50 (MCF7) of the same molecule?
A: 15700 nM

Q: With `CN1CCN(CC#Cc2c(Oc3ccc(NC(=O)c4ccnn(-c5ccc(F)cc5)c4=O)cc3F)ccnc2N)CC1` as the molecule, how does the IC50 (HCC827) read?
A: < 100 nM

Q: With `[2H][C@@](C)(c1cccc(-c2ncc(OCC3CCN(C)CC3)cn2)c1)n1nc(-c2cccc(C#N)c2)ccc1=O` as the molecule, how does the IC50 (MKN-45) read?
A: 1 nM

Q: What about the IC50 (MHCC97H) of the same molecule?
A: 4.3 nM

Q: For `CC(C)n1cc(C(=O)Nc2ccc(Oc3ccnc(N)c3C#CC(C)(C)N3CCOCC3)c(F)c2)c(=O)n(-c2ccc(F)cc2)c1=O`, which IC50 (HCC827) is on record?
A: < 100 nM

Q: Which IC50 [7] does the source give for `O=C(Nc1ccc(F)cc1)C1(C(=O)Nc2ccc(Oc3ncnn4cc(-c5cnn(CCO)c5)cc34)cc2)CC1` here?
A: 8.6 nM

Q: Which IC50 [7] does the source give for `Cn1cc(-c2cc3c(Oc4ccc(NC(=O)C5(C(=O)Nc6ccc(F)cc6)CC5)cc4)ncnn3c2)cn1` here?
A: 26 nM
